Test results taken from ChEMBL document CHEMBL1201862, “PubChem BioAssay data set” (2004).
Active and inactive are the calls of the source.

Tests used:
[1] = HEp-2 cell cytotoxicity, dose response, cytotoxicity control for RSV inhibitor project, HTS (AID 2410); format: functional; settings: human respiratory syncytial virus
[2] = inhibitors of firefly luciferase expression or activity, dose response, H4 neuroglioma cells, luminescence (AID 1990); format: functional, cell-based
[3] = Luminescence Cell-Based Dose Response HTS to Identify Inhibitors of 5'UTR Stem-Loop Driven Prion Protein mRNA Translation in H4 Neuroglioblastoma Cells. [Related pubchem assays: 1827 (Project Summary), 1813 (Primary HTS)]; format: functional
[4] = target: T1, Heat shock factor protein 1 (Mus musculus, UniProt P38532); assay: inhibition of MG132-induced HSE-luciferase signal, confirmation, cell-based, NIH3T3, luminescence, dose retest (AID 2382); format: functional;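 also: NIH3T3 fibroblasts with HSF1-driven luciferase reporter stressed by proteasome inhibitor MG132; luminescence from HSF1-driven luciferase expression after 8 hours of MG132 stress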
T1 sequence (P38532 whole entry): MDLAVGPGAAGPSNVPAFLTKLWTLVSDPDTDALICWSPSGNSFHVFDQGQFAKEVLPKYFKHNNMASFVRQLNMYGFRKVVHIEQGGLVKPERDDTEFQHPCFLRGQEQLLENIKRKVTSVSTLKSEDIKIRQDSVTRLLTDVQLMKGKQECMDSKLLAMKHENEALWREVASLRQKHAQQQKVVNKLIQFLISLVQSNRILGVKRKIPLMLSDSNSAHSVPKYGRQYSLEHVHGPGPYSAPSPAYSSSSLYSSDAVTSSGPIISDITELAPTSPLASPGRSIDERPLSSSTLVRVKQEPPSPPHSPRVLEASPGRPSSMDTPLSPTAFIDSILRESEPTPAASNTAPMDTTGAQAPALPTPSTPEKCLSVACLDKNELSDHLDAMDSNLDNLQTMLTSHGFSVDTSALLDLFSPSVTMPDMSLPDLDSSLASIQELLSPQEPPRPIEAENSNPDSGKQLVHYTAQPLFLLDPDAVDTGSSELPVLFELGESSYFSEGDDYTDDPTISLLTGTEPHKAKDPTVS

[5] = inhibitors of SNCA 5'UTR-driven reporter translation, confirmation, H4 neuroglioma cells, luminescence (AID 1988); format: functional, cell-based
CHO-K1 = assay: (§1) Counterscreen for antagonists of the orexin 1 receptor (OX1R; HCRTR1): Homogeneous time resolved fluorescence (HTRF)-based cell-based dose response assay to identify antagonists of the parental CHO-K1 cell line. [Related pubchem assays (depositor defined):AID434989, AID435008, AID463079, AID485270, AID492963, AID492964, AID492965, AID493232, AID504699, AID504701]; format: functional; settings: Cricetulus griseus
[6] = as §1, with “Fluorescence-based” for “Homogeneous time resolved fluorescence (HTRF)-based”, “cell-based high throughput” for “cell-based”, “CHO” for “CHO-K1”; format: functional
[7] = target: T2, Orexin/Hypocretin receptor type 1 (Homo sapiens, UniProt O43613); assay: Homogeneous Time Resolved Fluorescence (HTRF)-based cell-based high throughput dose response assay for antagonists of the orexin 1 receptor (OX1R; HCRTR1). [Related pubchem assays (depositor defined):AID434989, AID435008, AID463079, AID485270, AID492963, AID492964, AID492965, AID493232, AID504717, AID504718]; format: functional
T2 sequence (O43613 whole entry): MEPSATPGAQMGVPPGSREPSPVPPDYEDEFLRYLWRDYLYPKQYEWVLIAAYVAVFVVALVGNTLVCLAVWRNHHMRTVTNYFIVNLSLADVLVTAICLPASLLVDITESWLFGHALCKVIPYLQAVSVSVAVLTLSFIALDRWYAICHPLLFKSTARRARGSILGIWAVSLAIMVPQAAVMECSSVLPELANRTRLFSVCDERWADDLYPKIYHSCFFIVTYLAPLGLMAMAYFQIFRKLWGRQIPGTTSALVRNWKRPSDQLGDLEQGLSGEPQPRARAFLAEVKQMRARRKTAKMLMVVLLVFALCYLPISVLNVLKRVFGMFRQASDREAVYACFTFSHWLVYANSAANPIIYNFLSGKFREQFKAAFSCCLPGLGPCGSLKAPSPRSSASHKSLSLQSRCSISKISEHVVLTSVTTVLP

[8] = target: T2, Orexin/Hypocretin receptor type 1; assay: Fluorescence-based cell-based high throughput dose response assay for antagonists of the orexin 1 receptor (OX1R; HCRTR1). [Related pubchem assays (depositor defined):AID434989, AID435008, AID463079, AID485270, AID492963, AID492964, AID492965, AID493232, AID504717, AID504718]; format: functional
Orexin receptor type 2 [9] = target: T3, Orexin receptor type 2 (Homo sapiens, UniProt O43614); assay: Counterscreen assay for antagonists of the orexin 1 receptor (OX1R; HCRTR1): Fluorescence-based cell-based dose response assay for antagonists of the orexin 2 receptor (OX2R; HCRTR2), run by assay provider.; format: functional
T3 sequence (O43614 whole entry): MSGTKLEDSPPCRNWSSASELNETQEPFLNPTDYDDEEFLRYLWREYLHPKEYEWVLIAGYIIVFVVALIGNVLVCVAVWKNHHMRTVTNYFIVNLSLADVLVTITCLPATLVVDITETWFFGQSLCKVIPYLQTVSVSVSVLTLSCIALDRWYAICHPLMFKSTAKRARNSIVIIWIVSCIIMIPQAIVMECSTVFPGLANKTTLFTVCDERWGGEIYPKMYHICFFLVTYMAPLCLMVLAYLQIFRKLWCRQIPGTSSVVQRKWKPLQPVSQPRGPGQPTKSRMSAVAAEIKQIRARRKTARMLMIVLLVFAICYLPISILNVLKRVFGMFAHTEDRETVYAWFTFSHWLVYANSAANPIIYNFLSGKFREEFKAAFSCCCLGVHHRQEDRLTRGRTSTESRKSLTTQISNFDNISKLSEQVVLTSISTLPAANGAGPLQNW

Orexin receptor type 2 [10] = target: T3, Orexin receptor type 2; assay: Counterscreen assay for antagonists of the orexin 1 receptor (OX1R; HCRTR1): Homogeneous Time Resolved Fluorescence (HTRF)-based cell-based dose response assay for antagonists of the orexin 2 receptor (OX2R; HCRTR2), run by assay provider.; format: functional
[11] = target: T4, Sentrin-specific protease 1 (Homo sapiens, UniProt Q9P0U3); assay: potency of human SENP1 inhibitors, dose response, biochemical, kinetic FRET (AID 651697); format: functional; settings: read-out: IC50_Mean
T4 sequence (Q9P0U3 whole entry): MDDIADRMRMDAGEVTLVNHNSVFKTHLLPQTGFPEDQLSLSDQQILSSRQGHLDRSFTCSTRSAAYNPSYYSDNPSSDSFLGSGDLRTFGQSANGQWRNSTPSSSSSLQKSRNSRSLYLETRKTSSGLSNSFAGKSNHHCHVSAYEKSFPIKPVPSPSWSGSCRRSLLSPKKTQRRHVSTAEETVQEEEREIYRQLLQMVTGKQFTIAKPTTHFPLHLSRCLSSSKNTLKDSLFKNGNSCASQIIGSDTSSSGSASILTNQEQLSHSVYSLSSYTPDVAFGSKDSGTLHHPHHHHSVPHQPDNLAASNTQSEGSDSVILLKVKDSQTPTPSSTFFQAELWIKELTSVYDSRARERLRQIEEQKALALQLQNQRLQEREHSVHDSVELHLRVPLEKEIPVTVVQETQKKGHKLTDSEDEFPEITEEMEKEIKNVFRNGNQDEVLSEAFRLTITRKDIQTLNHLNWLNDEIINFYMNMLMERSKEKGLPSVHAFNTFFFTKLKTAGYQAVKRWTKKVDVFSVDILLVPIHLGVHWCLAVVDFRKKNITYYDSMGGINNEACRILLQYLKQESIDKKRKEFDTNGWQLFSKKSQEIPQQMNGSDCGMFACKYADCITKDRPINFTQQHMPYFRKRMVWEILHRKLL

[12] = target: T4, Sentrin-specific protease 1; assay: Dose response confirmation of small molecule inhibitors of the catalytic domain of the SUMO protease, SENP1 in a FRET assay.; format: functional; settings: read-out: IC50_Mean
[13] = target: Ras and Rab interactor 1/Tyrosine-protein kinase ABL1 (Homo sapiens, UniProt P00519+Q13671); format: functional;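 also: biochemical TR-FRET dose-response test measuring inhibition of binding between Rin1 and Abl proteins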
[14] = target: T5, Low molecular weight phosphotyrosine protein phosphatase (Homo sapiens, UniProt P24666); format: functional; settings: read-out: IC50_Mean
[15] = target: T5, Low molecular weight phosphotyrosine protein phosphatase; format: functional; settings: read-out: IC50_Mean; remark: listed apart in the source
[16] = target: T6, Neuropeptide Y receptor type 1 (Homo sapiens, UniProt P25929); format: functional;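 also: HEK293 cells with a CNG channel challenged with NPY then isoproterenol; potency as antagonist that reverses NPY suppression of cAMP signal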
T6 sequence (P25929 whole entry): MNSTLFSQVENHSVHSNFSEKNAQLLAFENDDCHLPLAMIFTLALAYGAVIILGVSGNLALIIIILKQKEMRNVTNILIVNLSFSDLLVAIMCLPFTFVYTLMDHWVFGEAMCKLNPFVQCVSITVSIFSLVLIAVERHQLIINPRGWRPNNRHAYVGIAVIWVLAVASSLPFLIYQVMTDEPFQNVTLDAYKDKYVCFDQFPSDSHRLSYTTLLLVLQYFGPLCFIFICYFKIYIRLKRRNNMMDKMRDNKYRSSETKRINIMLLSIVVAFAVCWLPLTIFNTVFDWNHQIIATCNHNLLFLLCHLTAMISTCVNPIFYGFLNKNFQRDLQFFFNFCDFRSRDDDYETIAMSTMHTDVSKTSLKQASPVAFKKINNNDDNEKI

[17] = target: T7, Neuropeptide Y receptor type 2 (Homo sapiens, UniProt P49146); format: functional, cell-based;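 also: HEK293 cells expressing the receptor and a CNG channel; stimulus was NPY near EC95 followed by isoproterenol to raise cAMP; antagonist potency measured as restoring cAMP signal that NPY suppresses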
T7 sequence (P49146 whole entry): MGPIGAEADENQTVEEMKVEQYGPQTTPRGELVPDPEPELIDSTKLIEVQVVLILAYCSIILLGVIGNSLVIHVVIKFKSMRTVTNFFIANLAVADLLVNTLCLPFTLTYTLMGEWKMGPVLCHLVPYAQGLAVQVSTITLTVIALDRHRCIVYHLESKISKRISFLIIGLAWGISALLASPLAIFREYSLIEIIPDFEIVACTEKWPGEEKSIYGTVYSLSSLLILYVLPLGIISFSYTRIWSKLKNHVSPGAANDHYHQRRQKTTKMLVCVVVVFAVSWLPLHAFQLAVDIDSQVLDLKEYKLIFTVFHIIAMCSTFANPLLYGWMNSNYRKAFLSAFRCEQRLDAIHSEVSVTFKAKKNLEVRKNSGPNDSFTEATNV

[18] = target: T8, Mitochondrial peptide methionine sulfoxide reductase (Bos taurus, UniProt P54149); format: functional;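 also: absorbance read-out, biochemical high-throughput dose-response screen for MsrA inhibitors, confirmatory; recombinant bovine MsrA coupled to E. coli TrxB with NADPH and selenocystamine; potency is for inhibitors of MsrA activity on DMSO substrate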
T8 sequence (P54149 whole entry): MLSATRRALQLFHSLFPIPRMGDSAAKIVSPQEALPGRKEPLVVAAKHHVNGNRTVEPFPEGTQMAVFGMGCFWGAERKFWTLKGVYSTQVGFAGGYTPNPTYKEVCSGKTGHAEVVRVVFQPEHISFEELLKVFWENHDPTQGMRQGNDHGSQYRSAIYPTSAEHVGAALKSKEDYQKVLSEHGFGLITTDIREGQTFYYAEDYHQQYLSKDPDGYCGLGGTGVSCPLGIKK

[19] = target: T9, ATP-dependent translocase ABCB1 (Homo sapiens, UniProt P08183); assay: ABCG2 efflux pump inhibitor potency, dose response, Ig-MXP3 cells, JC-1, flow cytometry, set 2 (AID 504566); format: functional; settings: read-out: EC50_MICROM_;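 also: flow cytometry median green fluorescence of retained JC-1 dye; potency of efflux pump inhibition measured as rising substrate retention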
[20] = target: T9, ATP-dependent translocase ABCB1; assay: ABCB1 efflux inhibitor potency, dose response, Jurkat-DNR cells, JC-1, flow cytometry, set 2 (AID 504569); format: functional; settings: read-out: EC50_MICROM_;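 also: potency of pump inhibitors that raise cellular JC-1 green fluorescence up to the nicardipine level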
Protein Wnt-3a = Protein Wnt-3a (Mus musculus, UniProt P27467); assay: Wnt3a-driven reporter signaling inhibition, dose response, selectivity assay for Gli-SUFU antagonist project, Wnt-LIGHT cells, luminescence (AID 651570); format: functional; settings: read-out: IC50_Mean;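 also: Wnt-LIGHT reporter cells stimulated with conditioned medium from Wnt3a-producing cells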
Protein Wnt-3a, sequence (P27467 whole entry): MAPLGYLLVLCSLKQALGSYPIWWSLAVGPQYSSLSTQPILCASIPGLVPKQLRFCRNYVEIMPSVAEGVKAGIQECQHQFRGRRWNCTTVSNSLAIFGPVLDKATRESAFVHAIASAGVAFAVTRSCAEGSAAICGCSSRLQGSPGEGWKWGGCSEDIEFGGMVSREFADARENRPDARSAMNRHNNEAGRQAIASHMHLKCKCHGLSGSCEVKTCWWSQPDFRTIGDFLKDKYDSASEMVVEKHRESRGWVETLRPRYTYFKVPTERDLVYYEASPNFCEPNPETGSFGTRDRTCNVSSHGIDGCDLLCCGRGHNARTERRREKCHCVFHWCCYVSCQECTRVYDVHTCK

T5 sequence (P24666 whole entry): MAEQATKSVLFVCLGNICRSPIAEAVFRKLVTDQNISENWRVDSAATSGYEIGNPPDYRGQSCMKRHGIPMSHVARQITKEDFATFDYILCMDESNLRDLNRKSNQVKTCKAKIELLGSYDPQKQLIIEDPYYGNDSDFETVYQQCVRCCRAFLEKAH
T9 sequence (P08183 whole entry): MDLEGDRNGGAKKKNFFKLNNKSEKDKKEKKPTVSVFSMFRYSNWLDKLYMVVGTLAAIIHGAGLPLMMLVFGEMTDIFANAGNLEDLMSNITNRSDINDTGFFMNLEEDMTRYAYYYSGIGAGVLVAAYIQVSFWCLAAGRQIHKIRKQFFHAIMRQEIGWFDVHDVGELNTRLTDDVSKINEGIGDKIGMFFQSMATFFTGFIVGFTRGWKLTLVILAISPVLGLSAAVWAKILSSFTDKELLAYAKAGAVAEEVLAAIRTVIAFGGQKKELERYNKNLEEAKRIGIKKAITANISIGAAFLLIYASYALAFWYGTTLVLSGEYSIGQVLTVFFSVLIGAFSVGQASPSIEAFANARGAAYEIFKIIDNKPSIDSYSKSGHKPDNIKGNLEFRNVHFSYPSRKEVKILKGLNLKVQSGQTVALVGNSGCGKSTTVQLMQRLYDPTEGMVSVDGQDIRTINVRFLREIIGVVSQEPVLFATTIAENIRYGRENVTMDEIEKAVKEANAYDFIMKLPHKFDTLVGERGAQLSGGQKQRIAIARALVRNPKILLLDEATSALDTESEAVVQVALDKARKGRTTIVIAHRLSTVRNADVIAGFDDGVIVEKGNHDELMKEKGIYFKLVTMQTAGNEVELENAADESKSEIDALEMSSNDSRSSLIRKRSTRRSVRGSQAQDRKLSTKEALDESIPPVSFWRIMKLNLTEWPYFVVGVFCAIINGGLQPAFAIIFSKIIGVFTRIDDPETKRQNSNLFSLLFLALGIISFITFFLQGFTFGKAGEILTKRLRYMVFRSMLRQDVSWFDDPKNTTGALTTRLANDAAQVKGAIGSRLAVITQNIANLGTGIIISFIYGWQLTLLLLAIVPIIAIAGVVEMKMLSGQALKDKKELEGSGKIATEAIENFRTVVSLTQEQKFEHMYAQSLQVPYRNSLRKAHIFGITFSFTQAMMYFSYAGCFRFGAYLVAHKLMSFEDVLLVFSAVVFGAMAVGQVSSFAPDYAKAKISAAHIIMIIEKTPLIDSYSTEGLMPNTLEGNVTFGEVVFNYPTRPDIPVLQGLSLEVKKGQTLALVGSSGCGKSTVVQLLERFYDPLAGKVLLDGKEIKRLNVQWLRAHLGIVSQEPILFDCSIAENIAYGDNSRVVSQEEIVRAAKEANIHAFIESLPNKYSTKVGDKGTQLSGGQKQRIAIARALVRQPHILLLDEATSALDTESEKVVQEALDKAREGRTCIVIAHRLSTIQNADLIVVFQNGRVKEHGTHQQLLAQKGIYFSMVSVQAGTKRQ
Ras and Rab interactor 1/Tyrosine-protein kinase ABL1, sequence (P00519 whole entry): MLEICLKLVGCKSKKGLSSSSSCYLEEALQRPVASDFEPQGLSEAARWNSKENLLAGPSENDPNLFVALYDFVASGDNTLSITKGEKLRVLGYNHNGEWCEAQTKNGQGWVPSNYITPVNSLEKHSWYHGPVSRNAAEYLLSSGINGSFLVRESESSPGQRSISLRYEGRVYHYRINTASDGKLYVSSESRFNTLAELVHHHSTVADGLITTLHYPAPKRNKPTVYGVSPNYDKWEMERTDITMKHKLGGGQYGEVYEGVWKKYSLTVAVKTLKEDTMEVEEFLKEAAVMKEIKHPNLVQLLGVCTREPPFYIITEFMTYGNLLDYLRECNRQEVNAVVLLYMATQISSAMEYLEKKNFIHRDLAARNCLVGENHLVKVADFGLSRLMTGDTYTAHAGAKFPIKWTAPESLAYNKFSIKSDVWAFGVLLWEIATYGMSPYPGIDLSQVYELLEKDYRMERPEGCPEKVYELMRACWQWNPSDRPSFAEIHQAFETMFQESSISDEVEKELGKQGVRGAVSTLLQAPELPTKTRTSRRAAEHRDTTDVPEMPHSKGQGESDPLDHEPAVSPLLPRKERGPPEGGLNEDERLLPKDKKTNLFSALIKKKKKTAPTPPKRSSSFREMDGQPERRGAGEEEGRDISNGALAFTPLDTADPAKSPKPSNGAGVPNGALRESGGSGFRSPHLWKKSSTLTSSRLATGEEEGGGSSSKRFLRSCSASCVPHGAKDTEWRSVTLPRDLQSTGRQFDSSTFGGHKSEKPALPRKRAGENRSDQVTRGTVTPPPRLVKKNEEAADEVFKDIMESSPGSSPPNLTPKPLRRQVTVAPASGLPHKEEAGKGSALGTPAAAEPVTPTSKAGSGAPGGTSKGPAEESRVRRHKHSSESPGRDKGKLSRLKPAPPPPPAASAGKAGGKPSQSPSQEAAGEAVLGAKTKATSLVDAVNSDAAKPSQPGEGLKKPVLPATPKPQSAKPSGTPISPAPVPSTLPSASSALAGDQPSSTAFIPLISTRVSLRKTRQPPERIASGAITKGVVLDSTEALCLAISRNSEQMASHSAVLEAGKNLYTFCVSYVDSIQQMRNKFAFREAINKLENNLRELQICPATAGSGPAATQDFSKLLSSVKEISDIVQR
Ras and Rab interactor 1/Tyrosine-protein kinase ABL1, sequence (Q13671 whole entry): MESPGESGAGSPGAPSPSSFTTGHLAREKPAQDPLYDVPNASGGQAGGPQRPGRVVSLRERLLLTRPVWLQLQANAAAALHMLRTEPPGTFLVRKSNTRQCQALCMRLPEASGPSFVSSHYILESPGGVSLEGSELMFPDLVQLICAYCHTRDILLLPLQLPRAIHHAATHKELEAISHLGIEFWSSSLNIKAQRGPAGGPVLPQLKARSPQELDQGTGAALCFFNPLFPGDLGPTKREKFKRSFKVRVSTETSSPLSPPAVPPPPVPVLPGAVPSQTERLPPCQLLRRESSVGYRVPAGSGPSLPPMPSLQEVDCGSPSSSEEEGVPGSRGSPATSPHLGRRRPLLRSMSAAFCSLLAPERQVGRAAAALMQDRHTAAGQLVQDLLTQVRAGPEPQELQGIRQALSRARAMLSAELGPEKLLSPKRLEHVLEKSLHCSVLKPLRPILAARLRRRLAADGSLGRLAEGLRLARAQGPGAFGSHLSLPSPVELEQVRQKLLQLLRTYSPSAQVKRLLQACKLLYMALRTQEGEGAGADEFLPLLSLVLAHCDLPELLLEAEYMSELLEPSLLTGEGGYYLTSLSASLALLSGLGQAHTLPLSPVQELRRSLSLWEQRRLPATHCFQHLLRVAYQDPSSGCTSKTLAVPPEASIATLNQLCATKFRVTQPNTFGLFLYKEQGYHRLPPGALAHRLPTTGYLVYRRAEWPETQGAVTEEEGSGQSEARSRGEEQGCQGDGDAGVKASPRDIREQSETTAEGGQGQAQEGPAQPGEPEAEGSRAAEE

Cc1nc2c(ccc3nc(NC(=O)Cc4cccc5ccccc45)sc32)s1
CC50 [1]: 12.2 µM (active) | EC50 [2]: 16.3 µM (active) | EC50 [3]: > 120 µM (not active) | EC50 [4]: > 195 µM (not active) | EC50 [5]: > 60 µM (not active) | IC50 (CHO-K1): > 66.2 µM (inactive) | IC50 [6]: > 49.7 µM (inactive) | IC50 [7]: 1.45 µM (active) | IC50 [8]: 5.34 µM (active) | IC50 (Orexin receptor type 2 [9]): 17.6 µM (inactive) | IC50 (Orexin receptor type 2 [10]): > 50 µM (inactive)

CCc1nnc(NC(=O)CCN2C(=O)/C(=C/c3cc(OC)c(OC)c(OC)c3)SC2=S)s1
IC50 [11]: 29.9 µM (inactive) | IC50 [12]: 13.3 µM (active)

Cc1ccc(C)c(NP(=O)(Oc2ccccc2)Oc2ccccc2)c1
IC50 (CHO-K1): > 66.2 µM (inactive) | IC50 [6]: 49 µM (inactive) | IC50 [7]: 5.47 µM (active) | IC50 [8]: 26.3 µM (inactive) | IC50 (Orexin receptor type 2 [9]): > 88.8 µM (inactive) | IC50 (Orexin receptor type 2 [10]): > 50 µM (inactive)

Cc1cc(S(=O)(=O)N2CCN(C(=O)CCC(=O)N3CCOCC3)CC2)ccc1Br
IC50 [13]: 21.5 µM (inactive)

Oc1c2c(nc3cc(-c4ccc(Cl)cc4)nn13)CCS2
IC50 [14]: 13.4 µM (active) | IC50 [15]: 16.3 µM (active)

CCc1nnc(S)n1/N=C/c1cc(Br)c(OC)cc1OC
IC50 [16]: > 35 µM (not active) | IC50 [17]: > 35 µM (not active) | IC50 [18]: 155 µM (inactive)

CC(C)(C)c1cc2nc(C(F)(F)F)cc(N3CCN(C(=O)c4cccs4)CC3)n2n1
EC50 [19]: 1.59 µM (active) | EC50 [20]: 6.06 µM (active)

Cc1ccc2c(c1)c(C)cc[n+]2Cc1ccccc1
IC50 (Protein Wnt-3a): 15.3 µM (active)
